Assay [1] relates to explants of human skin (NATIVESKIN, Genoskin). The experiment in a line: Morphological study (haematoxylin and eosin) of human skin explants after repeated UVA irradiation. Type of assay: cell-based. As to conditions: skin explant; topical (Ia) 100 ppm; three UVA stresses 50 J/cm2; FIG. 3. Here is the method:
(§1) In these examples, the protective properties of the compound (Ia) against the damage caused to the DNA and to the extracellular matrix by repeated UVA irradiation, are measured on explants of human skin (NATIVESKIN, Genoskin).
(§2) Upon reception of the explants, the latter are topically coated with Carbopol® (Lubrizol)+DMSO for the non-UVA control (CTL without stress) and for the control with stress by UVAs (CTL UVA), and with Carbopol®+compound (Ia) at 100 ppm for the test.
(§3) Over three days, the cells are subjected to three stresses with UVAs at a rate of 50 joules per square centimetre.
(§4) The first irradiation takes place 24 hours after the treatments. The products are present before, during and after the irradiation. The control without stress is wrapped in aluminium and also placed in the irradiator.
(§5) During the irradiation, the explants inserted are disposed in a petri dish with PBS. Fresh medium (Genoskin Culture medium) is added after the irradiation.
(§6) After the third day of irradiation, the explants are cultivated for 24 hours, then collected and fixed for 48 hours in formalin (Sigma). The samples are included in paraffin and cut.
A morphological study of the skin is implemented.
The samples of explant are deparaffined, rehydrated and then they are subjected to colouration with haematoxylin and with eosin in order to observe the in-depth effect of the compound (Ia) on the skin. […]

For the next assay, the system named is MMP-3. Kind of assay: Gene expression of MMP-3 by quantitative RT-PCR in NHEK. Type of assay: cell-based, human. The conditions noted are these: (Ia) 3 ppm (10^−5M), 24 hours. On the procedure:
(§7) In these examples, the expression of the messenger RNA is measured by the technique of quantitative RT-PCR (reverse transcription followed by polymerase chain reaction), after incubation in vitro of the various cell types in the absence or in the presence of compound (Ia).
(§8) This study was carried out on normal human dermal Fibroblasts (NHDF) or normal human epidermal Keratinocytes (NHEK). The compound (Ia) is tested at 10^−5M in an aqueous solution with 0.1% dimethylsulfoxide.
(§9) The cells are cultured at the concentration of 10,000 cells per well of 96-well plates, in the presence of standard culture medium according to the cell type.
(§10) The compound (Ia) is then added at the concentration (3 ppm), for 24 hours.
(§11) The supernatant is eliminated and the cells are taken up in a specific buffer for the extraction of the messenger RNA (mRNA). The mRNA is purified and reverse transcribed in the presence of a commercial reverse transcriptase.
(§12) The complementary DNA (cDNA) obtained is quantified by RT-PCR, by means of suitable primers. The rate of expression of the mRNA is normalised with 5 reference genes.
(§13) The cells used for this example are normal human keratinocytes (NHEK).

A further assay concerns NHEK cells. The experiment in a line: DNA double-strand breaks (γ-H2AX) induced by cigarette extract in NHEK. Type of assay: cell-based, human. The conditions noted are these: (Ia) 10 ppm pretreatment 24 h and treatment 24 h, cigarette extract 1/50, Control 10346, Cigarette extract 13269. Here is the method:
The cells used for this example are normal human Fibroblasts (NHDF) and normal human epidermal Keratinocytes (NHEK).
The cells are cultured at the concentration of 3000 cells per well of 96-well plates in the presence of standard culture medium for NHDF or NHEK (for 24 hours, 37° C., 5% CO2).
After pretreatment of the cells with the compound (Ia) at 10 ppm for 24 hours, the cells are treated with the cigarette extract diluted to 1/50° with or without compound (Ia) at 10 ppm for 24 hours. […].
After washing, the samples are then placed in the presence of DAPI for 10 min in order to mark the nuclei, then rinsed once again. The marked proteins are observed and quantified with an automated fluorescence microscope (ArrayScan® (Cellomics®)). The cells treated by the compound (Ia) are then compared to the untreated cells or to the cells only exposed to the cigarette extract.

The next assay deals with IL8. Kind of assay: Gene expression of IL8 by quantitative RT-PCR in NHEK. Type of assay: cell-based, human. The conditions noted are these: (Ia) 3 ppm (10^−5M), 24 hours. On the procedure: as §7, §8, §9, §10, §11, §12, §13
The subject of a further assay is Sirtuin-6. Kind of assay: Gene expression of Sirtuin-6 by real-time quantitative PCR in NHDF. Type of assay: cell-based, human. On the procedure:
The cells used for this example are normal human Fibroblasts (NHDF) The cells are inoculated in 96-well plates at a concentration of 10000 cells per well.
The contact with the compound tested is carried out for 24 h. After the 24 h contact, the supernatant is eliminated and the cells are collected in a lysis solution in order to extract the mRNA. The mRNA is reverse transcribed into DNA then quantified by real-time quantitative PCR.

In assay [2] the test system is explants of human skin (NATIVESKIN, Genoskin). The experiment in a line: γ-H2Ax immunofluorescence (DNA double-strand breaks) on human skin explants after repeated UVA irradiation. The assay is classed as cell-based. The conditions noted are these: skin explant, topical (Ia) 100 ppm in Carbopol, three UVA stresses 50 J/cm2. Here is the method:
as §1, §2, §3, §4
During the irradiation, the explants inserted are disposed in a petri dish with PBS. Fresh medium (Genoskin Culture medium) is added after the irradiation. […]
The sections are mounted on a slide, and observed using a microscope (Leica DM5000B). An absence of fluorescence is clearly observed for the sample treated with the compound (Ia) according to the invention, which corresponds to an absence of double-strand breaks of the DNA.
The fluorescence is quantified by means of the microscope.

The test system of the next assay is MMP1. Kind of assay: MMP1 immunofluorescence on human skin explants after repeated UVA irradiation. Type of assay: cell-based. The conditions noted are these: skin explant, (Ia) 100 ppm. Here is the method:
as §1, §2, §3, §4, §5, §6
A marking of the protein MMP1 by immunofluorescence on a paraffin section is carried out.
The samples are prepared for the fluorescent marking. […]
The sections are mounted on a slide and the fluorescence is quantified using a microscope (Leica DM5000B).

The subject of the next assay is TNFα. Kind of assay: Gene expression of TNFα by quantitative RT-PCR in NHEK. The assay is classed as cell-based, human. The conditions noted are these: (Ia) 3 ppm (10^−5M), 24 hours. Here is the method: as §7, §8, §9, §10, §11, §12, §13

Molecules are shown by their SMILES. Marks after values point to notes of the source that are not given here.

`Cc1ncc(CO)c(CNC(=O)/C=C/c2ccc(O)c(O)c2)c1O` [Compound (Ia)]: the “Morphology of the skin (epidermal barrier, structure of the dermis) after UVA” value in assay [1] was “the epidermal barrier is preserved from the degradation by the UVAs and the structure of the dermis is preserved”. Moreover, the “Reduction of the gene expression compared to the basal level based on 100% (MMP-3)” value with MMP-3 is reported as −50%. Also, the “Double-strand breaks of the DNA for NHEK (AU)” value with NHEK cells is 11193* AU. In addition, the “Reduction of the gene expression compared to the basal level based on 100% (IL8)” value in the assay on IL8 is −75%. Besides, the “Gene expression of the sirtuin-6 compared to the basal level based on 100%” value in the assay with Sirtuin-6 (24 h contact) stood at 166%. Besides, the “stimulation of the expression of the gene of the Sirtuin-6 with respect to the untreated control” value with Sirtuin-6 (see Example 13) turned out to be 66%. Besides, the “Cells positive for γ-H2Ax marking / total number of cells” value in assay [2] was 59/1282. In assay [2] (CTL UVA 33.93%, CTL without stress 4.34%), the “Cells positive for γ-H2Ax marking based on 100%” value is given as 4.76%. In addition, the “Average fluorescence intensity of the MMP1 marking (AU)” value in the assay on MMP1 (CTL UVA 165.2, CTL without stress 141.6) worked out at 146.2 AU. In the assay with MMP1 (relative to CTL without stress, CTL UVA +16.7%), the “Cells positive for MMP1 based on 100%” value is “+3.2%”. Further, in the assay on TNFα, the “Reduction of the gene expression compared to the basal level based on 100% (TNFα)” value is listed as −45%.

(Values after patent US10918891B2, “Cosmetic treatment method for the skin” (SYNTIVIA, priority 2016, dated 2021).)
